Tests used:
[1] = system: Horsham soil; test: Soil microcosm incubation (nitrification of applied ammonium), Horsham soil
[2] = system: South Johnstone soil; test: Soil microcosm incubation (nitrification of applied ammonium), South Johnstone soil; settings: for Nitrified NH4+—N (%) Day 3 / Nitrified NH4+—N (%) Day 7 / Nitrified NH4+—N (%) Day 14 / Nitrified NH4+—N (%) Day 21 / Nitrified NH4+—N (%) Day 28: 10 mol %
[3] = system: Dahlen soil; test: Soil microcosm incubation (nitrification of applied ammonium), Dahlen soil; settings: for Nitrified NH4+—N (%) Day 3 / Nitrified NH4+—N (%) Day 7 / Nitrified NH4+—N (%) Day 14 / Nitrified NH4+—N (%) Day 21 / Nitrified NH4+—N (%) Day 28: 10 mol %
[4] = Horsham soil pH 8.8, 25° C., inhibitors 10 mol % of applied N
[5] = Horsham soil pH 8.8, 25° C., 10 mol %
[6] = Horsham soil pH 8.8, 35° C., 10 mol %
[7] = South Johnstone soil pH 5.0, 25° C., negative = NH4+—N higher than day 0 (mineralisation)
[8] = South Johnstone soil pH 5.0, 25° C.
[9] = South Johnstone soil pH 5.0, 25° C., day 28
[10] = South Johnstone soil pH 5.0, 35° C.
[11] = South Johnstone soil pH 5.0, 35° C., day 28
[12] = Dahlen soil, 35° C., after 28 days
[13] = Table 4, Dahlen soil pH 7.3, 25° C.
[14] = Table 4, Dahlen soil pH 7.3, 35° C.
[15] = Table 5, Dahlen soil pH 7.3, 25° C.
[16] = Table 5, Dahlen soil pH 7.3, 35° C.

CCCc1cn(CCC)nn1 [Compound 16, 1,4-dipropyl-1H-1,2,3-triazole]
Nitrified NH4+—N (%) Day 3 [1, 4]: 8.9 ± 3.4% | Nitrified NH4+—N (%) Day 7 [1, 5]: 24.9 ± 3.0% | Nitrified NH4+—N (%) Day 14 [1, 5]: 44.2 ± 3.3% | Nitrified NH4+—N (%) Day 21 [1, 5]: 57.5 ± 3.4% | Nitrified NH4+—N (%) Day 28 [1, 5]: 70.9 ± 3.9% | Nitrified NH4+—N (%) Day 3 [1, 6]: 2.5 ± 4.5% | Nitrified NH4+—N (%) Day 7 [1, 6]: 22.3 ± 4.3% | Nitrified NH4+—N (%) Day 14 [1, 6]: 42.3 ± 4.6% | Nitrified NH4+—N (%) Day 21 [1, 6]: 74.9 ± 6.1% | Nitrified NH4+—N (%) Day 28 [1, 6]: 83.7 ± 6.1% | retaining NH4+ vs uninhibited control treatment ([1]; Horsham soil, 25° C., after 28 days): performed statistically better | nitrification rates vs uninhibited control treatment ([1]; Horsham soil, 35° C.): lower nitrification rates than the uninhibited control treatment | Nitrified NH4+—N (%) Day 3 [2, 7]: −6.3 ± 0.8% | Nitrified NH4+—N (%) Day 7 [2, 8]: −11.5 ± 0.8% | Nitrified NH4+—N (%) Day 14 [2, 8]: −14.4 ± 0.7% | Nitrified NH4+—N (%) Day 21 [2, 8]: −16.8 ± 1.2% | Nitrified NH4+—N (%) Day 28 [2, 9]: −13.2 ± 0.7% | Nitrified NH4+—N (%) Day 3 [2, 10]: −14.7 ± 1.9% | Nitrified NH4+—N (%) Day 7 [2, 10]: −26.3 ± 1.7% | Nitrified NH4+—N (%) Day 14 [2, 10]: −35.7 ± 2.4% | Nitrified NH4+—N (%) Day 21 [2, 10]: −35.7 ± 0.6% | Nitrified NH4+—N (%) Day 28 [2, 11]: −18.4 ± 2.3% | retaining NH4+—N vs DMPP ([2]; South Johnstone soil, 35° C.): performed statistically better than DMPP | retaining NH4+—N and slowing NOx−—N growth vs fertilised control ([2]; South Johnstone soil, 35° C., day 28): performed statistically better than the fertilised control | retaining NH4+—N vs uninhibited control treatment and DMPP ([3]; Dahlen soil, 25° C., after 28 days): performed statistically better | NOx−—N accumulation rate ([3]; Dahlen soil, 35° C., 28-day incubation): 1.8 mg NOx−—N/kg soil/day | ammonia consumption [3, 12]: 17% | retaining NH4+ vs both DMPP treatment and control treatment [3, 12]: performed statistically better | Nitrified NH4+—N (%) Day 3 [3, 13]: 8.8 ± 3.3% | Nitrified NH4+—N (%) Day 7 [3, 13]: 15.6 ± 5.0% | Nitrified NH4+—N (%) Day 14 [3, 13]: 16.4 ± 28.7% | Nitrified NH4+—N (%) Day 21 [3, 13]: 26.9 ± 4.6% | Nitrified NH4+—N (%) Day 28 [3, 13]: 37.3 ± 4.4% | Nitrified NH4+—N (%) Day 3 [3, 14]: 1.5 ± 1.4% | Nitrified NH4+—N (%) Day 7 [3, 14]: 6.0 ± 1.5% | Nitrified NH4+—N (%) Day 14 [3, 14]: 16.1 ± 4.5% | Nitrified NH4+—N (%) Day 21 [3, 14]: 29.8 ± 1.2% | Nitrified NH4+—N (%) Day 28 [3, 14]: 16.9 ± 2.6%

Cc1c[nH]nc1C.O=P(O)(O)O [DMPP, 3,4-dimethylpyrazole phosphate, reference compound]
Nitrified NH4+—N (%) Day 3 [1, 4]: −6.9 ± 2.8% | Nitrified NH4+—N (%) Day 7 [1, 5]: 8.5 ± 2.8% | Nitrified NH4+—N (%) Day 14 [1, 5]: 37.2 ± 2.3% | Nitrified NH4+—N (%) Day 21 [1, 5]: 75.7 ± 5.4% | Nitrified NH4+—N (%) Day 28 [1, 5]: 76.2 ± 2.1% | Nitrified NH4+—N (%) Day 3 [1, 6]: 7.9 ± 3.0% | Nitrified NH4+—N (%) Day 7 [1, 6]: 18.9 ± 2.8% | Nitrified NH4+—N (%) Day 14 [1, 6]: 32.3 ± 4.1% | Nitrified NH4+—N (%) Day 21 [1, 6]: 46.6 ± 5.9% | Nitrified NH4+—N (%) Day 28 [1, 6]: 64.5 ± 12.7% | NOx−—N accumulation: effect of temperature (25° C. vs 35° C.) ([1]; Horsham soil, 28-day incubation): greatest increase in production rate at the higher test temperature | retaining NH4+ and preventing NOx production (statistics vs control) ([1]; Horsham soil, 35° C.): performed statistically better | NH4+—N consumption ([1]; Horsham soil, 35° C., after 28 days): 65% | Nitrified NH4+—N (%) Day 3 [2, 7]: −12.5 ± 8.8% | Nitrified NH4+—N (%) Day 7 [2, 8]: −10.3 ± 0.7% | Nitrified NH4+—N (%) Day 14 [2, 8]: −12.5 ± 0.6% | Nitrified NH4+—N (%) Day 21 [2, 8]: −12.0 ± 1.6% | Nitrified NH4+—N (%) Day 28 [2, 9]: −7.5 ± 0.5% | Nitrified NH4+—N (%) Day 3 [2, 10]: −12.3 ± 1.2% | Nitrified NH4+—N (%) Day 7 [2, 10]: −25.3 ± 0.9% | Nitrified NH4+—N (%) Day 14 [2, 10]: −28.1 ± 1.3% | Nitrified NH4+—N (%) Day 21 [2, 10]: −23.0 ± 2.3% | Nitrified NH4+—N (%) Day 28 [2, 11]: −0.90 ± 2.3% | effectiveness among the treatments (NH4+—N retention, NOx−—N growth) ([2]; South Johnstone soil, 25° C., days 21 and 28): least effective | performance at higher temperature ([3]; Dahlen soil, 35° C. vs 25° C.): performed significantly poorer at the higher temperature | retaining NH4+—N vs (NH4)2SO4-treated control by day 28 ([3]; Dahlen soil, 35° C., Table 5 test): remain highly effective | nitrified ammonia ([3]; Dahlen soil, 35° C., day 21 (Table 5)): 52% | Nitrified NH4+—N (%) Day 3 [3, 13]: 2.1 ± 2.8% | Nitrified NH4+—N (%) Day 7 [3, 13]: 11.7 ± 6.7% | Nitrified NH4+—N (%) Day 14 [3, 13]: 17.3 ± 12.7% | Nitrified NH4+—N (%) Day 21 [3, 13]: 18.2 ± 6.6% | Nitrified NH4+—N (%) Day 28 [3, 13]: 18.6 ± 4.9% | Nitrified NH4+—N (%) Day 3 [3, 14]: 2.4 ± 3.0% | Nitrified NH4+—N (%) Day 7 [3, 14]: 24.8 ± 2.7% | Nitrified NH4+—N (%) Day 14 [3, 14]: 25.6 ± 3.8% | Nitrified NH4+—N (%) Day 21 [3, 14]: 48.3 ± 6.4% | Nitrified NH4+—N (%) Day 28 [3, 14]: 60.5 ± 8.4% | Nitrified NH4+—N (%) Day 3 ([3]; Table 5 (further comparative test), Dahlen soil pH 7.3, 25° C.): 4.9 ± 3.1% | Nitrified NH4+—N (%) Day 7 [3, 15]: 11.0 ± 3.2% | Nitrified NH4+—N (%) Day 14 [3, 15]: 17.4 ± 4.2% | Nitrified NH4+—N (%) Day 21 [3, 15]: 28.7 ± 5.2% | Nitrified NH4+—N (%) Day 28 [3, 15]: 21.8 ± 3.3% | Nitrified NH4+—N (%) Day 3 [3, 16]: 15.3 ± 2.9% | Nitrified NH4+—N (%) Day 7 [3, 16]: 15.8 ± 2.5% | Nitrified NH4+—N (%) Day 14 [3, 16]: 16.0 ± 6.0% | Nitrified NH4+—N (%) Day 21 [3, 16]: 51.5 ± 5.4% | Nitrified NH4+—N (%) Day 28 [3, 16]: 38.5 ± 2.9%

— patent US20220324770A1, “NITRIFICATION INHIBITORS” (The University of Melbourne, priority 2019, published 2022)
